Experimental findings from a melting point compilation (Tetko et al.; mined from patent text by program, amines drawn as free bases though some values may be those of a salt) are described below.

Regarding `COc1cc2c(cc1OC)C(C)N(C(=O)Cc1cccc([N+](=O)[O-])c1)CC2` (stereo unspecified), the melting point was 120 to 121 °C.
Compound `CCOc1ccc(C2=NN(c3ccc(S(=O)(=O)O)cc3)C(=O)[C@H]3CC=CC[C@@H]23)cc1OCC` (relative stereo) gave a melting point of 65 to 69 °C.
Take `C=C(C(=O)c1ccc(OC)c(OC)c1)c1ccc(F)cc1`: the melting point lay in the range of 77 to 78 °C.
In the case of `O=C1CC(Cc2ccc(F)cc2)CN1` (stereo unspecified) it was 88.5 to 90 °C.
The figure for `O=[N+]([O-])c1cc(C(F)(F)F)ccc1-c1ccno1` is 62 to 63 °C; for `Cc1nnc(-c2ccc3occ(-c4ccccc4Cl)c3c2)o1` it is 83 to 84 °C; for `CC(C)(COc1ccc(Cl)cc1)C(=O)C(Oc1ccc(Cl)cc1)n1cncn1` (stereo unspecified) it is 206 to 208 °C.
The compound `COC(=O)c1ccc2c(c1)S(=O)(=O)N=CN2C1CC1` had a melting point of 192 to 195 °C.
`C[C@@H]1Nc2ccc(-c3cc(F)cc(C#N)c3)cc2[C@](C)(c2ccccc2)O1` registered a melting point of 128 to 129 °C.
Regarding `CCCCn1c(=O)c(C(=O)OCC)c(O)c2ccccc21`, the melting point lay in the range of 147 to 148 °C.
In the case of `CC(=O)OC1(C)CN(C(=O)Nc2ccc(C(F)(F)F)cc2)N=C1c1ccc(Cl)cc1` (stereo unspecified) it was 92 to 96 °C; in that of `O=C1Cc2c(Cl)cccc2Sc2c(F)cccc21`, 128 to 130 °C; in that of `CC1(NC(=O)CN2C(=O)c3ccccc3C2=O)CCCCCC1`, 190 °C.
In the case of `O=C(O)CCCC(=O)N[C@@H](Cc1ccccc1)C(=O)NCCCCNc1ncccn1`, the melting point was 186 °C.
The figure for `CN1C(C(=O)Nc2ccccn2)=C(OC(=O)C=Cc2ccccc2)c2ccccc2S1(=O)=O` is 156 to 158 °C; for `CNC(=O)c1ccc(Nc2nc(Nc3cc4c(cc3OC)CCN(CC(=O)N(C)C)CC4)ncc2Cl)c(OC)c1` it is 138 to 147 °C; for `Cc1cccc(-c2nc(N)sc2-c2ccnc(-c3ccc(OCc4cn(C)cn4)cc3)c2)n1` it is 226 to 228 °C.
`NCC(=O)Nc1ccc(Cl)cc1C(=NCCO)c1ccccc1F` gave a melting point of 128 to 132 °C.
The compound `CC1=C(C(=O)OCC(C)C)C(c2cccc([N+](=O)[O-])c2)c2c(N)nc(N)nc2N1` (stereo unspecified) had a melting point of 130 °C.
With `O=S(=O)(c1ccccc1)c1ccc(NN=C2CCCN(Cc3ccccc3)CC2)cc1`, the melting point is 142 to 146 °C.
In the case of `O=[N+]([O-])c1cc2nc(Cl)c(Cl)nc2cc1Sc1ncc[nH]1`, the melting point was > 300 °C.
As to `CC(=O)N(N(CCCl)S(C)(=O)=O)S(C)(=O)=O`, the melting point was 148 to 149 °C.
For `Oc1cc2c(cc1C=CCc1ccccc1)OCO2`, the melting point came to 83 °C.
The compound `CCC(=O)NCC(CO)c1cccc2ccc(OC)cc12` (stereo unspecified) displayed a melting point of 128 to 129 °C.
Compound `CCn1c(=O)c2c(nc(/C=C/c3ccc(C)cc3)n2C)n(CC)c1=O` gave a melting point of 171 to 172 °C.
With `Nc1ncc(C(=O)Cl)cc1Cl`, the melting point is > 250 °C.
The figure for `Cc1cc(-c2ccc(S(N)(=O)=O)cc2)n(-c2ccc(F)cc2)c1` is 126 to 127 °C; for `CCOC(=O)c1c(S)nc(-c2ccccc2)c([N+](=O)[O-])c1C(=O)OCC` it is 129 to 132 °C; for `COc1ccc(CC(C)(N)C(=O)O)cc1` (stereo unspecified) it is 243 to 244 °C.
The figure for `CCCCc1nn(-c2cc(N)ccc2Cl)c(=O)n1Cc1ccc(-c2ccccc2S(=O)(=O)NC(=O)c2ccccc2Cl)cc1` is 155 to 157 °C; for `CCC1Cc2c(O)cc(OC)cc2C(=O)O1` (stereo unspecified) it is 167 to 168 °C; for `O=C(c1ccccc1)C(O)c1ccc(F)cc1` (stereo unspecified) it is 108 to 109 °C.
As to `C/C(=C\C(=O)Nc1ccccc1C(=O)O)c1ccc(OC(F)F)c(OC(F)F)c1`, the melting point fell in the range of 170 to 173 °C.
In the case of `O=C1Nc2cc(F)ccc2C1c1ncnc2c1cnn2C1CCCCC1` (stereo unspecified) it was 277 to 280 °C; in that of `Cc1cc(C(=O)C2CCc3nc[nH]c3C2)c2ccccn12` (stereo unspecified), 219 to 221 °C; in that of `CCCCN(CC)CC(=O)N1c2ccccc2N(C)C(=O)c2cncnc21`, 131 to 133 °C.
As for `O=C(O)C(Cc1c[nH]cn1)N1C(=O)c2ccccc2C1=O` (stereo unspecified), the melting point fell in the range of 280 to 285 °C.
In the case of `N#Cc1cc2nc(O)c(O)nc2cc1C#N` it was > 300 °C.
In turn, `CC(=O)Nc1c(C(=O)Cc2ccccc2)[nH]c2cc(Cl)ccc12` gave a melting point of 258 to 259 °C.
In turn, `CCSCC(=C1NCCCS1)[N+](=O)[O-]` gave a melting point of 69.5 to 71 °C.
Compound `O=C(O)CCC(=O)c1ccc(F)c([N+](=O)[O-])c1` came in with a melting point of 136 °C.
Take `C=CCOc1ccc(S(=O)(=O)c2ccc(C)nc2Nc2c(C)cc(C)cc2C)cc1`: the melting point is 138 to 140 °C.
In turn, `CC(C)(C)c1cc2c(c(C(C)(C)C)c1)OC(=O)C2c1ccc(O)cc1` (stereo unspecified) showed a melting point of 187 to 190 °C.
For `CC(C)c1[nH]nc2c1C(=O)c1c(NC(N)=O)cccc1-2`, the melting point is > 250 °C.
In turn, `O=C(NCCSc1ccccn1)Nc1cc(N2CC(c3ccccc3)OC2=O)ccn1` (stereo unspecified) displayed a melting point of 209 to 211 °C.
Turning to `OCc1cnc2c(Cl)cccc2c1O`, the melting point is > 300 °C.
The compound `CCCCOc1ccc(C#CC2(O)CN3CCC2CC3)cn1` (stereo unspecified) came in with a melting point of 149 to 151 °C.
The compound `Cn1c(=O)c(-c2ccc(Cl)cc2Cl)cc2c3cc(I)ccc3n(C)c21` displayed a melting point of 223 to 225 °C.
In the case of `CN(C)C=NC(=O)C=Cc1ccccc1`, the melting point was in the range of 91 to 93 °C.
For the compound `O=S(=O)(CC(O)(CCl)c1ccccc1)c1ccccc1` (stereo unspecified), the melting point was determined as 110 °C.
The figure for `Cc1ccc(C(=O)CCCCCBr)cc1C` is 61 to 63 °C; for `O=C(O[C@@H]1[C@@H](Br)C[C@]2(O)C[C@H]1OC2=O)c1ccccc1` it is 142 to 143 °C; for `CC(C)(C)OC(=O)Cn1c(C(=O)O)cc2cnccc21` it is 265 °C.
As for `O=C1CCC(Cn2c(=O)[nH]c3ncc(-c4ccc(O)cc4)nc32)N1` (stereo unspecified), the melting point is 338 to 340 °C.
The compound `NS(=O)(=O)c1ccc(NC(=O)CCl)c(Cl)c1` gave a melting point of 162 to 164 °C.
The figure for `Cc1cc(-c2ccc(C(F)(F)F)cc2)cc(-c2cccc(-c3cccc(S(=O)(=O)NC(=O)C(C)C)c3)n2)n1` is 190 °C; for `CCCCCCCCCCCCCCCCCCCCC(CCCCCCCCCCCCCC)C(=O)O` (stereo unspecified) it is 65 to 67 °C; for `CC(C)C(C)C=CC(C)C1CCC2C3=CC=C4CC(O)C=CC4(C)C3CCC21C` (stereo unspecified) it is 156 to 157 °C.
`CCCCCCCCCc1ccc(S(N)(=O)=O)cc1` showed a melting point of 94.5 to 95.2 °C.
Regarding `CCc1nc2c(N)nc3cc(CCC(=O)N4CCSC4)ccc3c2n1CC(C)(C)O`, the melting point lay within 210 to 212 °C.
Consider `Cn1c(=O)[nH]c2nc3ccc(OCCCC(=O)NC4CCCCC4)cc3cc21`, for which the melting point was 282 to 284 °C.
`O=c1nc(-c2ccccc2F)c2c3c(sc2[nH]1)CCCC3` registered a melting point of 274 to 277 °C.
In turn, `CN1CCN(c2ccc(-c3[nH]nc4c3C(=O)c3c(NC(=O)NN5CCOCC5)cccc3-4)cc2)CC1` yielded a melting point of 245 °C.
`O=C(O)C1Cc2c(c(Cl)cc3c(=O)c4ccccc4oc23)O1` (stereo unspecified) showed a melting point of 292 to 295 °C.
Compound `COC(=O)c1ccc(-c2ccc(-c3ccccc3)c(-c3ccc4c(c3)C(C)(C)CCC4(C)C)c2)c(O)c1` yielded a melting point of 183 to 185 °C.
With `CC(C)NC1CN(c2c(F)cc3c(=O)c(C(=O)O)cn(-c4nc(N)c(F)cc4F)c3c2Br)C1`, the melting point is > 203 °C.
The compound `C1=Cc2ccccc2C2(CO2)c2ccccc21` gave a melting point of 90 to 91 °C.
With `N#Cc1ccc(-c2ccc(C(CCC(=O)O)=NO)cc2)cc1`, the melting point was 157 to 159 °C.
In the case of `COc1nc2cc(Cl)c(C)c(NS(C)(=O)=O)c2nc1OC` it was 228 to 229 °C; in that of `CC(C)(C)OC(=O)C1CCCN(CO)c2c1cc(OCc1ccccc1)c1ccccc21` (stereo unspecified), 108 to 110 °C.
`CS(=O)(=O)OCCCCC1C(=O)Nc2ccccc21` (stereo unspecified) showed a melting point of 84 to 85 °C.
In the case of `N[C@@H](CSCc1ccc(C(=O)O)cc1)C(=O)O` it was > 260 °C; in that of `CCOC(=O)C=C(C)C=CC=C(C)C=Cc1c(C)cc(C)c(Cl)c1C`, 84 to 85 °C.
With `CC(C)(C)C(=O)C1CCCS1(=O)=O` (stereo unspecified), the melting point fell in the range of 53 to 56 °C.
`OC(CNCCCCCCOCCCCc1ccccc1)c1ccc2c(n1)COC(c1ccccc1)O2` (stereo unspecified) displayed a melting point of 67 to 73 °C.
The figure for `CCOC(=O)CCn1cnc2c(=O)[nH]cnc21` is 197 to 200 °C.
Consider `O=C(Cn1c(-c2ccc(Cl)cc2)nc2cccnc21)N1CCC1`, for which the melting point lay in the range of 196 to 197 °C.
Regarding `Cc1c(F)c(F)c(C(=O)NC2CCCCC2C)c(F)c1F` (stereo unspecified), the melting point was in the range of 202 to 204 °C.
In the case of `COc1ccc(C)c2nc(Cl)c(C(C)C)cc12`, the melting point was in the range of 74 to 76 °C.
For `CC(O)CCc1ccc2c(c1)C(=O)c1ccccc1-2` (stereo unspecified), the melting point was in the range of 77 to 78 °C.
In the case of `COc1ccc(C(C)=O)cc1C(F)(F)F`, the melting point was 56 to 57 °C.
In the case of `CS(=O)(=O)OC1CC(n2ccc(=O)[nH]c2=O)OC1COC(c1ccccc1)(c1ccccc1)c1ccccc1` (stereo unspecified) it was 106 to 108 °C; in that of `CN(C)CC(=O)Nc1cccc2nc(N[C@@H]3CCc4ccccc43)ccc12`, 153 °C.
For the compound `Cc1nc2cc(-n3cccc3)ccc2s1`, the melting point fell in the range of 91 to 96 °C.
In turn, `CCc1nc2c(N)nc3cc(Br)ccc3c2n1CC1CCN(C(=O)OC(C)(C)C)CC1` came in with a melting point of 131 to 132 °C.
In turn, `N#Cc1cc(Cl)c(NC(=O)C(F)(F)F)c(Cl)c1` gave a melting point of 134 to 136 °C.
Compound `O=C(OCC(OC(=O)c1ccccc1)c1nc2c(C(F)(F)F)cccc2c(O)c1C(=O)Nc1nccs1)c1ccccc1` (stereo unspecified) gave a melting point of 240 °C.
In turn, `CCN(CC)CCNC(=O)N1CCc2cc(OC)c(OC)cc2C1c1ccccc1` (stereo unspecified) returned a melting point of 97 to 98 °C.
The figure for `CCc1nc(C)[nH]c1I` is 156 to 159 °C; for `O=[N+]([O-])c1cc(CC(O)(Cn2cncn2)Cn2cncn2)ccc1Cl` it is 136 to 137 °C; for `CCN1CC(=O)Nc2cc(NC3(C(N)=O)CC4CC3C=C4Cl)c(OC)cc2C1` (stereo unspecified) it is 154 to 156 °C.
